Data as given in US20060154990A1, “Use of MEK inhibitors in treating abnormal cell growth” (AGOURON PHARMACEUTICALS, INC., priority 2004, published 2006).
Several values for one entry are separate records, joined by “and”; a condition that tells them apart may be missing. Identical values can stand only once.

Columns and labels:
[1] = tested on: Colo-205 human colon xenograft; assay: Antitumor activity against human colon xenograft Colo-205
Protocol: A study was also carried out to explore the potential of an intermittent dosing strategy.

clinical = settings: human, plasma, oral
Protocol: Pharmacokinetic data are presented for the first 38 subjects.
Blood samples were collected from patients into a purple-top potassium EDTA Vacutainer tube. Following mixing with gentle inversion (8-10 times), tubes were centrifuged within 20 minutes at 1000×g for 15 minutes, to harvest plasma. Plasma samples were stored at −20° C. until analysis.
The following results are based on preliminary pharmacokinetic parameters from the 38 subjects, estimated using nominal collection times and quality-controlled, non quality-assured bioanalytical data. Pharmacokinetic parameters were determined by the non-compartmental method using WINNONLIN Professional Edition (Version 4.1). […] The maximum observed concentration (Cmax) was obtained by inspection of the concentration data. The time to reach the Cmax was the first time at which Cmax is observed and obtained by inspection of the data. The pre-dose concentration (Ctrough) was obtained by inspection of the concentration data.

[2] = Pilot food effect assessment of plasma pharmacokinetics; settings: for AUC(0-24) Change % / Cmax Change %: fed versus fasted; for Cmax / Tmax / AUC(0-t): human, plasma, oral
Protocol: A pilot food effect evaluation was conducted on Day 1 of Cycle 1 (ClDl) and Day 1 of Cycle 2 (C1D2).

[3] = Colo-205 colon, oral 25 mg/kg once a day for 14 days

O=C(NOC[C@H](O)CO)c1ccc(F)c(F)c1Nc1ccc(I)cc1F [Compound 1, N-[(R)-2,3-dihydroxy-propoxy]-3,4-difluoro-2-(2-fluoro-4-iodo-phenylamino)-benzamide]
PR (partial response) ([1]; Colo-205, D19-46, 12.5 mg/kg): 0/6 | T − C ([1]; Colo-205, D19-46, 12.5 mg/kg): 70.1 days | Tumor Free ([1]; Colo-205, D19-46, 12.5 mg/kg): 0/6 | CR (complete response) ([1]; Colo-205, D19-46, 25 mg/kg): 5/6 | Net Log10 kill ([1]; Colo-205, D19-46, 25 mg/kg): 2.0 | Nonspecific Deaths ([1]; Colo-205, D19-46, 25 mg/kg): 0/6 | PR (partial response) ([1]; Colo-205, D19-46, 25 mg/kg): 1/6 | T − C ([1]; Colo-205, D19-46, 25 mg/kg): 63.9 days | Tumor Free ([1]; Colo-205, D19-46, 25 mg/kg): 1/6 | CR (complete responder) [1, 3]: 4/10 | PR (partial responder) [1, 3]: 5/10 | T − C [1, 3]: 10.8 days | Tumor Free [1, 3]: 3/10 | half-life (clinical): 5 to 14 h | Cmax (clinical; 1 mg): 41.1 ng/mL | Tmax (clinical; 1 mg): 1 h | half-life (clinical; 1 mg): 13.9 h | Cmax (clinical; 2 mg): 152 ng/mL | Tmax (clinical; 2 mg): 1 h | AUC(0-t) (clinical; 4 mg): 1580 ng·h/mL | Cmax (clinical; 4 mg): 208 ng/mL | Tmax (clinical; 4 mg): 1 h | concentration at 21 day (clinical; 4 mg): 82 ng/mL | half-life (clinical; 4 mg): 7.6 h | Cmax (clinical; 15 mg): 706 ng/mL | Tmax (clinical; 15 mg): 1 h | half-life (clinical; 15 mg): 12.6 h | AUC(0-t) (clinical; 20 mg): 6990 ng·h/mL | Cmax (clinical; 20 mg): 766 ng/mL | Tmax (clinical; 20 mg): 2 h | concentration at 21 day (clinical; 20 mg): 440 ng/mL | half-life (clinical; 20 mg): 8.3 h | AUC(0-t) (clinical; 30 mg): 12500 ng·h/mL | Cmax (clinical; 30 mg): 1640 ng/mL | Tmax (clinical; 30 mg): 2 h | concentration at 21 day (clinical; 30 mg): 500 ng/mL | half-life (clinical; 30 mg): 4.8 h | AUC(0-24) Change % ([2]; 1 mg BID, individual patients): −76% and 390% | Cmax Change % ([2]; 1 mg BID, individual patients): −82% and 161% | AUC(0-24) Fasted ([2]; 1 mg BID, individual patients): 998 ng·h/mL and 133 ng·h/mL | AUC(0-24) Fed ([2]; 1 mg BID, individual patients): 244 ng·h/mL and 652 ng·h/mL | Cmax Fasted ([2]; 1 mg BID, individual patients): 181 ng/mL and 21.6 ng/mL | Cmax Fed ([2]; 1 mg BID, individual patients): 56.4 ng/mL | AUC(0-24) Change % ([2]; 2 mg BID, individual patients): −38% and 138% and 74% and 1% | Cmax Change % ([2]; 2 mg BID, individual patients): −62% and −29% and −28% and −36% | AUC(0-24) Fasted ([2]; 2 mg BID, individual patients): 874 ng·h/mL and 526 ng·h/mL and 454 ng·h/mL | AUC(0-24) Fed ([2]; 2 mg BID, individual patients): 369 ng·h/mL and 2080 ng·h/mL and 914 ng·h/mL and 456 ng·h/mL | Cmax Fasted ([2]; 2 mg BID, individual patients): 77.5 ng/mL and 173 ng/mL and 71.9 ng/mL and 88.7 ng/mL | Cmax Fed ([2]; 2 mg BID, individual patients): 29.5 ng/mL and 122 ng/mL and 52.1 ng/mL and 56.7 ng/mL | Tmax Fed ([2]; 2 mg BID, individual patients): 8 h | AUC(0-24) Change % ([2]; 4 mg BID, individual patients): −7% and −20% and −18% (2×) | Cmax Change % ([2]; 4 mg BID, individual patients): −25% and −49% (2×) and −57% | AUC(0-24) Fasted ([2]; 4 mg BID, individual patients): 1060 ng·h/mL and 721 ng·h/mL and 919 ng·h/mL | AUC(0-24) Fed ([2]; 4 mg BID, individual patients): 849 ng·h/mL and 590 ng·h/mL and 754 ng·h/mL | Cmax Fasted ([2]; 4 mg BID, individual patients): 65.5 ng/mL and 157 ng/mL and 114 ng/mL | Cmax Fed ([2]; 4 mg BID, individual patients): 80.7 ng/mL and 58.4 ng/mL and 68.0 ng/mL | Tmax Fasted ([2]; 4 mg BID, individual patients): 1 h | AUC(0-24) Change % ([2]; 15 mg BID, individual patients): −14% and −67% and −27% | Cmax Change % ([2]; 15 mg BID, individual patients): −59% and −80% and −50% | AUC(0-24) Fasted ([2]; 15 mg BID, individual patients): 2880 ng·h/mL and 4880 ng·h/mL | AUC(0-24) Fed ([2]; 15 mg BID, individual patients): 4700 ng·h/mL and 957 ng·h/mL and 3580 ng·h/mL | Cmax Fasted ([2]; 15 mg BID, individual patients): 1120 ng/mL and 464 ng/mL and 641 ng/mL | Cmax Fed ([2]; 15 mg BID, individual patients): 459 ng/mL and 92.0 ng/mL and 319 ng/mL | AUC(0-24) Change % ([2]; 20 mg BID, individual patients): −6% and −2% and −15% | Cmax Change % ([2]; 20 mg BID, individual patients): −57% and −32% and −34% | AUC(0-24) Fasted ([2]; 20 mg BID, individual patients): 4340 ng·h/mL and 6820 ng·h/mL and 3360 ng·h/mL | AUC(0-24) Fed ([2]; 20 mg BID, individual patients): 4060 ng·h/mL and 6700 ng·h/mL and 2860 ng·h/mL | Cmax Fasted ([2]; 20 mg BID, individual patients): 1180 ng/mL and 596 ng/mL | Cmax Fed ([2]; 20 mg BID, individual patients): 358 ng/mL and 797 ng/mL and 393 ng/mL | coefficient of variation (CV) for AUC(0-24) ([2]; fed state): 78% | Cmax ([2]; 1 mg, Cmax Fed, 1 mg BID, individual patients): 33.4 ng/mL | Tmax ([2]; 1 mg, Tmax Fasted, 1 mg BID, individual patients): 1 h | Tmax ([2]; 1 mg, Tmax Fed, 1 mg BID, individual patients): 3 h | AUC(0-t) ([2]; 2 mg, AUC(0-24) Fasted, 2 mg BID, individual patients): 594 ng·h/mL | Tmax ([2]; 2 mg, Tmax Fasted, 2 mg BID, individual patients): 1 h | Tmax ([2]; 2 mg, Tmax Fed, 2 mg BID, individual patients): 6 h | AUC(0-t) ([2]; 4 mg, AUC(0-24) Fasted, 4 mg BID, individual patients): 705 ng·h/mL | AUC(0-t) ([2]; 4 mg, AUC(0-24) Fed, 4 mg BID, individual patients): 654 ng·h/mL | Cmax ([2]; 4 mg, Cmax Fed, 4 mg BID, individual patients): 49.1 ng/mL | Tmax ([2]; 4 mg, Tmax Fed, 4 mg BID, individual patients): 6 h | AUC(0-t) ([2]; 15 mg, AUC(0-24) Fasted, 15 mg BID, individual patients): 5460 ng·h/mL | Tmax ([2]; 15 mg, Tmax Fasted, 15 mg BID, individual patients): 1 h | Tmax ([2]; 15 mg, Tmax Fed, 15 mg BID, individual patients): 4 h | Cmax ([2]; 20 mg, Cmax Fasted, 20 mg BID, individual patients): 839 ng/mL | Tmax ([2]; 20 mg, Tmax Fasted, 20 mg BID, individual patients): 1 h | Tmax ([2]; 20 mg, Tmax Fed, 20 mg BID, individual patients): 4 h | delay of peak plasma levels ([2]; taken with a high fat meal): 2 to 7 h
